Our source for the IC50 and VLB/OV3 values is patent US5606037A, “Processes antineoplastic heteronaphthoquinones” (BioChem Pharma Inc., priority 1995, dated 1997).

Type in all cases: cell-based, Human
In assay [1] the test system is SKOV3 (Ovarian adenocarcinoma). Put plainly: In vitro cytotoxicity, microculture tetrazolium (MTT) assay, SKOV3. To be noted: SKOV3 ovarian adenocarcinoma, 48 h with compound, further 48 h, MTT, Table 1. The essentials: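 Cells plated overnight, then exposed to compound (1:3 dilutions, 100 μM to 1.7 nM, quadruplicate) 48 h at 37 °C, followed by 48 h in fresh medium. MTT 4 h, formazan extracted in DMSO/Sorensen's buffer pH 10.5, A570; four-parameter logistic fit on 0–100% survival scale.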

The subject of assay [2] is T47D (Ductal carcinoma of breast). Put plainly: In vitro cytotoxicity, microculture tetrazolium (MTT) assay, T47D. As to conditions: 48 h with compound, further 48 h, Table 1. In outline:
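Adherent cells (1,500-4,000/well) were exposed to compound in 1:3 dilutions from 100 μM to 1.7 nM, in quadruplicate, for 48 h at 37° C, followed by 48 h in fresh medium. MTT formazan was read at 570 nm, and data were fitted by four-parameter logistic on a 0-100% survival scale.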

In assay [3] the test system is Lox (Melanoma). In words: In vitro cytotoxicity, microculture tetrazolium (MTT) assay, LOX. To be noted: 48 h with compound, further 48 h, Table 1. The essentials: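 LOX melanoma cells, 1,500–4,000 per well, exposed to compound (1:3 dilutions, 100 μM to 1.7 nM) for 48 h at 37° C., then 48 h in fresh medium. MTT reduction read at 570 nm; four-parameter logistic fit normalized to 0–100% survival.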

For assay [4], the system named is HT 29 (Colon adenocarcinoma). In words: In vitro cytotoxicity, microculture tetrazolium (MTT) assay, HT29. To be noted: further 48 h, Table 1. In outline: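 HT29 cells exposed to compound (1:3 series, 100 μM to 1.7 nM, quadruplicate) for 48 h at 37 °C, then 48 h in fresh medium. Viability by MTT reduction, formazan absorbance at 570 nm; four-parameter logistic fit on 0-100% survival scale.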

For assay [5], the system named is VLB/OV3. Put plainly: Resistance ratio of SKVLB over SKOV3 cytotoxicity (VLB/OV3). To be noted: ratio SKVLB to SKOV3; Table 1; 2880 min. As for the experimental part: The microculture tetrazolium assay was used to test in vitro cytotoxicity. This assay is described in Plumb, J. A. et al., 1989 Cancer Research 49, 4435-4440, which is herein incorporated by reference. The cytotoxicity of compounds towards tumor cells is measured in vitro using the assay. This assay method is based upon the ability of live, but not dead cells to reduce the yellow water soluble dye 3-(4,5-dimethylthiazol-2-yl)-2,5-diphenyltetrazolium bromide (MTT) to its water insoluble purple formazan product.
SKOV3 (Ovarian adenocarcinoma)--provided by Dr. V. Ling, Ontario Cancer Institute.
SKVLB (Ovarian; multidrug resistant)--Dr. V. Ling, Ontario Cancer Institute.
For each assay, doxorubicin is included as an inter-assay standard. This allows us to monitor the behaviour of the assay in general, and in particular, to check that the SKVLB line has maintained its resistant phenotype.
Cells are plated out in 100 μl of culture medium in the microtiter plates at a density of around 1,500-4,000 cells per well. The plates are incubated overnight to allow the cells to become adherent after which the test compound is added (100 μl of appropriate dilution per well). The cells are incubated with test compound at 37° C. for 48 h after which the compound is replaced with fresh medium. After a further 48 h incubation at 37° C., 50 μl of MTT solution (2 mg/ml) is added to each well. The plates are incubated in the dark for 4 h at 37° C. after which the medium is removed. The MTT formazan product is extracted from the cells by the addition of 200 μl DMSO followed by 50 μl of Sorensen's buffer. The plates are shaken briefly and the absorbance at 570 nm is read using a Molecular Devices UV max plate reader. Curves are fit to the MTT assay data using a four parameter logistic equation, and the data are normalized to fit a 0% to 100% survival scale.

Assay [6] concerns SKVLB (Ovarian; multidrug resistant). Put plainly: In vitro cytotoxicity, microculture tetrazolium (MTT) assay, SKVLB. To be noted: Homo sapiens; SKVLB multidrug resistant ovarian; 48 h with compound, further 48 h, MTT; Table 1. The essentials: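 Multidrug-resistant SKVLB ovarian cells, 1,500–4,000 per well, exposed to compound (1:3 dilutions, 100 μM to 1.7 nM, quadruplicate) for 48 h at 37 °C, then 48 h in fresh medium. Viability by MTT reduction, formazan read at 570 nm; four-parameter logistic fit on a 0–100% survival scale.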

[7] abbreviates: Homo sapiens, HT-29, 48 h with compound.

Where a name gives a salt, the structure may show the parent alone.

In general, IC50 refers to the concentration needed to halve the response being measured. Take `C=CC[C@@H]1CC2=C(C(=O)c3ccccc3C2=O)[C@@H](O[C@H]2C[C@H](NC(=O)C(F)(F)F)[C@H](O)[C@H](C)O2)O1` (mixture of isomers) [BCH2031, (1'S,1S,3S) and (1'S,1-R,3-R)-3-([2',3',6'-trideoxy-3'-trifluoroacetamido-4'-hydroxy-L-lyhohexopyranose]-5,10-dioxo-3,4,5,10-tetrahydronaphtho-[2,3-c]-pyran-3-yl)-propene]: the IC50 in assay [1] was found to be 6 µM; in assay [2] it was 16 µM; in assay [3], 2.8 µM; in assay [4] (48 h with compound), 8.5 µM. In addition, the VLB/OV3 in assay [5] stood at 3.
In the case of `CC(=O)OC1C(C)OC(OC2OC(C(C)=O)CC3=C2C(=O)c2ccccc2C3=O)C(I)C1OC(C)=O` (mixture of isomers) [BCH2065, (1'S,1R,1S) and (1'S,1S,3R)-methyl-(1-[2',6'-dideoxy-3',4'-diacetoxy-2'-iodo-L-arabino-hexopyranose]-5,10-dioxo-3,4,5,10-tetrahydronaphtho-[2,3-c]-pyran-3-yl) ketone], the VLB/OV3 in assay [5] was found to be 4.
On the same count and under the same terms, the result for `CC(=O)C1CC2=C(C(=O)c3ccccc3C2=O)C(OCC2CCN(C(=O)OC(C)(C)C)CC2)O1.Cl` (racemic) [BCH2068, Methyl-(1-O-[N-BOC-4-piperidine-methanol]-5,10-dioxo-3,4,5,10-tetrahydronaphthaleno-[2,3-c]pyran-3-yl) ketone, racemic, hydrochloride] reads 1; that for `COP(=O)(CC(=O)[C@H]1CC2=C(C(=O)c3ccccc3C2=O)[C@H](O[C@H]2C[C@H](NC(=O)C(F)(F)F)[C@H](O)[C@H](C)O2)O1)OC` [BCH1690, (1'S,1S,3R)-1-(2',3',6'-trideoxy-3'-trifluoroacetamido-L-lyxohexopyranose)-3-dimethylphosphonoacetyl-5,10-dioxo-3,4,5-10-tetrahydro-1H-naphtho-[2,3-c]-pyran], 7.70.
Take `CC(=O)[C@@]1(C)CC2=C(C(=O)c3ccccc3C2=O)[C@H](O[C@H]2C[C@H](NC(=O)C(F)(F)F)[C@H](O)[C@H](C)O2)O1` [BCH2082, (1'S, 1S, 3R)-1-(3'-trifluoroacetamido-2',3',6'-trideoxy-L-lyxohexopyranose)-3-acetyl-3-methyl-5,10-dioxo-4,5,10-trihydro-1H-naphtho-[2,3-c]-pyran]: the IC50 in assay [1] (Homo sapiens, SK-OV-3) was 1.8 µM; in assay [6], 5.6 µM; in assay [2] (Homo sapiens), 4 µM; in assay [3] (Homo sapiens), 1.6 µM; in assay [4] (setting [7]) it was 2.6 µM.
As to `CC[C@H]1CO[C@H](O[C@H]2C[C@H](NC(=O)C(F)(F)F)[C@H](O)[C@H](C)O2)C2=C1C(=O)c1ccccc1C2=O` [BCH2091, (1'S, 1R, 4R)-5,10-dioxo-4-ethyl-1-(2',3',6'-trideoxy-3'-trifluoroacetamido-L-lyxohexopyranose)-3,4,5,10-tetrahydro-1H-naphtho-[2,3-c]pyran], the IC50 in assay [1] (Homo sapiens, SK-OV-3) is 13.4 µM; in assay [6] it was 32 µM; in assay [2] (Homo sapiens), 16 µM; in assay [3] (Homo sapiens), 3.3 µM; in assay [4] (setting [7]) it was 11.3 µM.
The matching figures for `CC(=O)O[C@@H]1[C@H](C)O[C@@H](O[C@@H]2O[C@@H](C(C)=O)CC3=C2C(=O)c2ccccc2C3=O)C(Br)[C@@H]1OC(C)=O` (stereo partly drawn) [BCH2099, (1'S,1S,3R)-methyl-(1-[2',6'-dideoxy-3',4'-diacetoxy-2'-bromo-L-lyxohexopyranose]-5,10-dioxo-3,4,5,10-tetrahydronaphtho-[2,3-c]-pyran-3-yl) ketone]: 0.599 to 2 µM, 0.462 to 8.4 µM, 0.728 to 3.4 µM, 0.128 to 1.1 µM and 0.303 to 1.7 µM.
Turning to `CC(=O)O[C@@H]1[C@H](C)O[C@@H](O[C@H]2O[C@H](C(C)=O)CC3=C2C(=O)c2ccccc2C3=O)C(Br)[C@@H]1OC(C)=O` (stereo partly drawn) [BCH2100, (1'S,1R,3S)-methyl-(1-[2',6'-dideoxy-3',4'-diacetoxy-2'-bromo-L-lyxohexopyranose]-5,10-dioxo-3,4,5,10-tetrahydronaphtho-[2,3-c]-pyran-3-yl) ketone], the 50% inhibitory concentration (IC50) in assay [1] (Homo sapiens, SK-OV-3) was determined as 2.7 µM; in assay [6], 8.22 µM; in assay [2] (Homo sapiens), 4 µM; in assay [3] (Homo sapiens), 3 µM; in assay [4] (setting [7]) it was 5.12 µM.
The matching figures for `CC(C)C(=O)[C@@H]1CC2=C(C(=O)c3ccccc3C2=O)[C@@H](O[C@H]2C[C@H](NC(=O)C(F)(F)F)[C@H](O)[C@H](C)O2)O1` [BCH2112, (1'S, 1R, 3S)-isopropyl-[1-(2',3',6'-trideoxy-3'-trifluoroacetamido-L-lyxohexopyranose)-5,10-dioxo-3,4,5,10-tetrahydro-1H-naphtho-[2,3-c]-pyranyl]-ketone]: 0.104 µM, 1.7 µM, 0.27 µM, 0.21 µM and 0.065 µM.
The corresponding values for `COC1OC(C(C)=O)=CC2=C1C(=O)c1ccccc1C2=O` (stereo not drawn) [BCH2129, 3-Aceto-5,10-dioxo-1-methoxy-5,10-dihydro-1H-naphtho-(2,3-c)-pyran] are 0.359 µM, 1.06 µM, 0.452 µM, 0.228 µM and 2.07 µM.
The matching figures for `CO[C@H]1C[C@H](O[C@H]2O[C@H](C(C)=O)C[C@]34O[C@]23C(=O)c2ccccc2C4=O)O[C@@H](C)[C@H]1OS(C)(=O)=O` [BCH2141, (1'-S,1-R,3-S,4a-S,10a-S)-methyl-(1-[2',3',4',6'-tetradeoxy-3'-methoxy-4'-O-methanesulfonyl-L-lyxohexopyranose)-4a,10a-epoxy-5,10-dioxo-3,4,5,10-tetrahydronaphtho-[2,3-c]pyran-3-yl) ketone]: 8.12 µM, 9.96 µM, 3.79 µM, 1.82 µM and 6.44 µM.
`CC(=O)C1CC2=C(C(=O)c3ccccc3C2=O)C(OC2CC(NC(=O)C(F)(F)F)C(O)C(C)O2)O1` [BCH2144, (1R, 3S)-1-(2',3',6'-trideoxy-3'-trifluoroacetamido-4'-hydroxy-1,5-dihydro-L-lyxohexopyranose-2-yl)-5,10-dioxo-3,4,5,10-tetrahydro-1H-naphtho-[2,3-c] pyran]: the VLB/OV3 in assay [5] was 0.75.
For `COC(=O)C1=CC2=C(C(=O)c3ccccc3C2=O)C(OC)O1` (stereo not drawn) [BCH2160, 1-methoxy-3-methoxy carbonyl-5,10-dioxo-5,10-dihydro-1H-naphtho-[2,3-c]-pyran], the IC50 was determined as 4.93 µM in assay [1] (Homo sapiens, SK-OV-3); 9.12 µM in assay [6]; 9.59 µM in assay [2] (Homo sapiens); 7.43 µM in assay [3] (Homo sapiens); 15.7 µM in assay [4] (setting [7]).
The matching figures for `COC1OC(C(=O)NCCN2CCCC2)=CC2=C1C(=O)c1ccccc1C2=O` (stereo not drawn) [BCH2839, 1-methoxy-3-[2-(N-pyrrolidinyl)ethylaminocarbonyl]-5,10-dioxo-5,10-dihydro-1H-naphtho-[2,3-c]-pyran hydrochloride salt]: 0.0365 to 0.0461 µM, 0.224 to 0.46 µM, 0.0581 to 0.291 µM, 0.262 to 0.975 µM and 0.174 to 0.49 µM.
